Source: patent US20250269062A1, “METHODS FOR IN VIVO EDITING OF A LIVER GENE” (INTELLIA THERAPEUTICS, INC., priority 2021, published 2025)
Entries after “also recorded” stand apart in the source; their conditions may differ.

What was measured:
[1] = Clinical plasma pharmacokinetics of NTLA-2001 components (LC-MS/MS for Lipid A and DMG-PEG2k, qRT-PCR for guide RNA and mRNA); format: in vivo, human; conditions: for plasma concentration-time profile: following single IV infusion of NTLA-2001, interim
Excerpt: Plasma pharmacokinetic methods were developed and validated to quantify 4 components of NTLA-2001: ionizable Lipid A (also referred to as LP01), DMG-PEG2k lipid, guide RNA, and mRNA. Lipid A and DMG-PEG2k are quantified by liquid chromatography with tandem mass spectrometry (LC-MS/MS) method. Assay signal [ratio of area under the curve of reference standard over internal standard (IS, using isotopic labelled reference standard)] vs. Concentration response standard curve is used. QCs and unknown sample signal are interpolated from standard curve to determine plasma concentrations. Both guide RNA and mRNA are quantified by qRT-PCR. Signal Cycle Threshold (Ct) vs. Concentration standard curve is used. QCs and unknown samples were interpolated from standard curve to quantify plasma concentrations. Urine PK methods were developed and validated for Lipid A and DMG-PEG2k to characterize excretion.
Preliminary plasma PK data are available for the four components of NTLA-2001 (ionizable Lipid A, DMG-PEG2k lipid, guide RNA, and mRNA). […] FIG. 24. Data for other components not shown.

[2] = Population pharmacokinetics (POPPK) model and simulations of LP01; design: species or system human; conditions: interim POPPK model, 15 ATTRv-PN subjects
Description: An interim POPPK model was developed for NTLA-2001 analyte LP01 based on a published model using NONMEM software (Version 7.5.0, ICON Clinical Research LLC, Blue Vell, PA). There were 290 observations in 15 ATTRv-PN subjects for this analysis. Parameter values for this model and goodness of fit plots were determined (not shown). The relationship between body weight and the estimated elimination clearance was determined, together with the modeled linear relationship.
FIG. 26 provides the distribution of simulated AUC by weight quartile following administration of 1 mg/kg (left panel) and 80 mg (right panel) NTLA-2001. […] Likewise, following 80 mg NTLA-2001, there is again overlap of simulated LP01 AUC across weight quartiles. […] The ratio of simulated mean exposures in the 4th ([90.3-146] kg) to the 1st weight quartile ([48-71.7] kg) is 1.25 for 1 mg/kg NTLA-2001 and 0.81 for 80 mg NTLA-2001. Simulations identified NTLA-2001 80 mg as the fixed dose equivalent to 1.0 mg/kg.

half-life ([1]; human, plasma, single IV infusion of NTLA-2001 at 0.1 to 1.0 mg/kg, range across doses, preliminary, read-out: mean (% CV) terminal t1/2): 19.7 to 24.8 h
SMILES: CCCCC/C=C\C/C=C\CCCCCCCC(=O)OCC(COC(=O)CCC(OCCCCCCCC)OCCCCCCCC)COC(=O)OCCCN(CC)CC (stereo not shown) [LP01, (9Z,12Z)-3-((4,4-bis(octyloxy)butanoyl)oxy)-2-((((3-(diethylamino)propoxy)carbonyl)oxy)methyl)propyl octadeca-9,12-dienoate]
plasma concentration-time profile [1]: rapid decline from peak levels, followed by a secondary peak, and then a log-linear phase; also recorded: declines rapidly from peak and then exhibits a secondary peak and log-linear phase | plasma concentration-time profile ([1]; listed as NTLA-2001 ionizable lipid): rapid decline from peak levels followed by a secondary peak and then a log-linear phase | relationship between body weight and estimated elimination clearance [2]: less than proportional
